# ChEMBL document CHEMBL2331400, “Structure-based design and evaluation of naphthalene diimide G-quadruplex ligands as telomere targeting agents in pancreatic cancer cells” (J Med Chem, 2013)
# The source made the active and inactive calls. No cut-off for these calls is given here.
# Tests used:
# MIA PaCa-2 [1] = test: Induction of senescence in human MIAPaCa2 cells at 3.3 to 6.6 nM after 7 days by beta-galactosidase assay relative to vehicle-treated control; type: functional
# MIA PaCa-2 [2] = test: Downregulation of UNG gene expression in human MIAPaCa2 cells at 160 nM after 24 hrs by qPCR analysis; type: functional, cell-based
# MIA PaCa-2 [3] = test: Upregulation of PPM1D gene expression in human MIAPaCa2 cells at cytotoxic concentration after 24 hrs by qPCR analysis; type: functional, cell-based
# MIA PaCa-2 [4] = test: Downregulation of PPP1R15A gene expression in human MIAPaCa2 cells at subcytotoxic concentration after 24 hrs by qPCR analysis; type: functional, cell-based
# MIA PaCa-2 [5] = test: Downregulation of GADD45A gene expression in human MIAPaCa2 cells at subcytotoxic concentration after 24 hrs by qPCR analysis; type: functional, cell-based
# MIA PaCa-2 [6] = test: Downregulation of CDKN1A gene expression in human MIAPaCa2 cells at subcytotoxic concentration after 24 hrs by qPCR analysis; type: functional, cell-based
# MIA PaCa-2 [7] = test: Downregulation of SLX4 gene expression in human MIAPaCa2 cells at 20 to 80 nM after 24 hrs by qPCR analysis relative to solvent-treated control; type: functional
# MIA PaCa-2 [8] = test: Upregulation of PPARG gene expression in human MIAPaCa2 cells at 20 to 80 nM after 24 hrs by qPCR analysis relative to solvent-treated control; type: functional
# MIA PaCa-2 [9] = test: Upregulation of NHP2 gene expression in human MIAPaCa2 cells at 20 to 80 nM after 24 hrs by qPCR analysis relative to solvent-treated control; type: functional
# MIA PaCa-2 [10] = test: Upregulation of MYC gene expression in human MIAPaCa2 cells at 20 to 80 nM by qPCR analysis relative to solvent-treated control; type: functional
# MCF7 = test: Cytotoxicity against human MCF7 cells assessed as growth inhibition after 96 hrs by SRB assay; type: functional, cell-based; conditions: MCF7, 96 h
# unidentified = test: Stabilization of HSP90b promoter sequence 5'-FAM-d(GGGCGGGCCAAAGGGAAGGGG)-TAMRA-3' (unknown origin) assessed as melting temperature at 1 uM by FRET assay
smiles,measurement,setting,value
CN1CCN(CCCNc2cc3c4c(c(NCCCN5CCN(C)CC5)cc5c4c2C(=O)N(CCCN2CCOCC2)C5=O)C(=O)N(CCCN2CCOCC2)C3=O)CC1,Activity,MIA PaCa-2 [1],50%
same,Activity,MIA PaCa-2 [2],Active
same,Activity,MIA PaCa-2 [3],Active
same,Activity,MIA PaCa-2 [4],inactive
same,Activity,MIA PaCa-2 [5],inactive
same,Activity,MIA PaCa-2 [6],inactive
same,fold change (FC),MIA PaCa-2 [7],>2
same,fold change (FC),MIA PaCa-2 [8],>2
same,fold change (FC),MIA PaCa-2 [9],>2
same,fold change (FC),MIA PaCa-2 [10],>2
same,IC50,MCF7,70 nM
same,ΔTm,unidentified,28.6 °C
